Data reported in PMC6440464 (PeerJ, 2019).
Values joined by “and” are separate entries in the source; they are usually repeats but may differ in a detail not shown here. Equal values may be shown once.

Assay: Pharmacokinetics study after separate oral administration in rats (HPLC-MS of plasma)
Assay type: in vivo, Sprague-Dawley rats
Details: for Plasma concentrations: individual rats NO. 1-5; for AUC(0-t) / Cmax / Tmax / t1/2z: labelled substance = analyte, individual rats No1-No5
Description: A total of 15 SPF Sprague-Dawley rats (SD, male, 190–210 g) were provided by Sino-British Sippr/BK Lab Animal Company Ltd. (Shanghai, China). The rats were kept in standard conditions (22–26 °C; 40–60% relative humidity; 12 h light/dark cycle). Throughout the rearing period, the animals had access to food and water ad libitum. Animal experiments were conducted in accordance with the standard ethical guidelines of the Laboratory Animal Management Committee of Jiangsu Province (SYXK (SU) 2016-0011).
Following 1 week of adaptation, the rats were fasted for about 12 h before dosing, with free access to water. […] After administration of the first dose, blood samples were taken from the retro-orbital vein at 0, 5, 15, 30, 60, 90, 120, 180, 240, 360, 480, and 1,440 min and collected in heparinized tubes. The samples were centrifuged at 3,500 rpm for 10 min at 4 °C and the plasma was stored at −80 °C until analysis.
An Agilent 1,200 series HPLC system (Agilent Technologies, Waldbronn, Germany) equipped with a quaternary pump on-line degasser, auto-sampler and column oven, and an SL G1946D quadruple mass spectrometer (Agilent Technologies, Santa Clara, CA, USA) equipped with an electrospray ionization (ESI) source, were used for separation and detection. Data were acquired and analyzed using Agilent ChemStation Software Version A.01.00 (Agilent Technologies, Santa Clara, CA, USA).
The separation was carried out with an Amethyst C18-H column (150 × 4.6 mm, 5 μm, Sepax Technologies, Newark, DE, USA) with a guard column SB-C18 (10 × 4.6 mm, 5 μm, Phenomenex Technologies, Torrance, USA) at a constant temperature of 25 °C.
The mass spectra were acquired using ESI interfaced to a single quadrupole mass spectrometer. The ionization conditions were as follows: drying gas (N2) flow rate of 11 L/min, drying gas temperature of 350 °C, nebulizing gas (N2) pressure of 35 psi, capillary voltage of 3,500 V, quad temperature of 100 °C, and fragment voltage of 110 V. A series of m/z were monitored using a timed program according to the retention times and characteristic ions for the corresponding HPLC-MS peak obtained by scanning from m/z 100–1,000 in the standard sample.
Briefly, an aliquot of plasma sample (100 μL) was spiked with 5% formic acid (10 μL) in centrifuge tube. Subsequently, hydrochloric acid (2 mol/L, 10 μL) and IS solution (960.00 ng/mL, 20 μL) were added. Then ethyl acetate/n-butyl alcohol (1:1 v/v; 1,000 μL) was used to extract the components. The samples were then homogenized by vortex mixing and centrifuged for 10 min at 14,000 rpm. After centrifugation, 800 μL of supernatant was transferred to another centrifuge tube and the sample was evaporated to dryness. The residues were dissolved in 100 μL of methanol and centrifuged for 10 min at 12,000 rpm. 50 μL of the supernatant was transferred to the vial and an aliquot of 5 μL was injected into the HPLC-MS system for analysis.
DAS 2.0 (Chinese Pharmacological Association, Shanghai, China) was used to calculate the pharmacokinetic parameters using the non-compartment model, including the area under curve (AUC), mean residence time (MRT), half-life ( t1/2z), clearance rate (CL), maximum plasma concentration (Cmax), and time (Tmax). All results are expressed as mean ± standard deviation (SD). One way analysis of variance followed by […] was used for comparison of different groups using Graph pad prism 5 software. A p-value of <0.05 was considered statistically significant.

[1] = IQ group (oral IQ 50 mg/kg), rat plasma
[2] = QG group (oral QG 50 mg/kg), rat plasma
[3] = Qr group (oral Qr 50 mg/kg), rat plasma

O=c1c(O)c(-c2ccc(O)c(O)c2)oc2cc(O)cc(O)c12 [Qr, Quercetin]
Plasma concentrations (IQ group (oral IQ 50 mg/kg), 5 min): 97 ng/mL and 72.1 ng/mL
Plasma concentrations (IQ group (oral IQ 50 mg/kg), 120 min): 1913.8 ng/mL and 3969.5 ng/mL and 3663.4 ng/mL and 3592.6 ng/mL and 4482.8 ng/mL
Plasma concentrations (IQ group (oral IQ 50 mg/kg), 180 min): 2424.7 ng/mL and 3384.3 ng/mL and 2628.6 ng/mL and 529.3 ng/mL and 3851.1 ng/mL
Plasma concentrations (IQ group (oral IQ 50 mg/kg), 240 min): 1940 ng/mL and 3381.2 ng/mL and 2408.4 ng/mL and 1320.4 ng/mL and 1250.9 ng/mL
Plasma concentrations (IQ group (oral IQ 50 mg/kg), 360 min): 1313.4 ng/mL and 2984 ng/mL and 4511 ng/mL and 1879.1 ng/mL and 1080.1 ng/mL
Plasma concentrations (IQ group (oral IQ 50 mg/kg), 480 min): 1825.8 ng/mL and 2829.2 ng/mL and 642.1 ng/mL and 975.9 ng/mL and 503.3 ng/mL
Plasma concentrations (IQ group (oral IQ 50 mg/kg), 1440 min): 90.3 ng/mL and 1333.2 ng/mL and 1663.4 ng/mL and 210.4 ng/mL and 61.1 ng/mL
AUC(0-t) [1]: 2661.03 mg·min/L and 1721.03 mg·min/L and 1261.04 mg·min/L and 1844.61 mg·min/L and 3575.83 mg·min/L
Cmax [1]: 8460 ng/mL and 10370.3 ng/mL and 4575 ng/mL and 4452 ng/mL and 5147 ng/mL
Tmax [1]: 30 min and 60 min
t1/2z [1]: 2.34307 h and 7.45293 h and 4.46562 h and 15.5735 h
Detection in rat plasma (IQ group: oral IQ 50 mg/kg): measured
Plasma concentrations (QG group (oral QG 50 mg/kg), 5 min): 0 ng/mL
Plasma concentrations (QG group (oral QG 50 mg/kg), 120 min): 0 ng/mL and 178 ng/mL and 350 ng/mL and 264.3 ng/mL and 91.3 ng/mL
Plasma concentrations (QG group (oral QG 50 mg/kg), 180 min): 1405.7 ng/mL and 1522.4 ng/mL and 4112 ng/mL and 56.4 ng/mL and 1551 ng/mL
Plasma concentrations (QG group (oral QG 50 mg/kg), 240 min): 2385.9 ng/mL and 4434.6 ng/mL and 6808.5 ng/mL and 1445.9 ng/mL and 1915.9 ng/mL
Plasma concentrations (QG group (oral QG 50 mg/kg), 360 min): 997.6 ng/mL and 4127.1 ng/mL and 4268 ng/mL and 6817.8 ng/mL and 3639.1 ng/mL
Plasma concentrations (QG group (oral QG 50 mg/kg), 480 min): 880.9 ng/mL and 5383.5 ng/mL and 6785.2 ng/mL and 4353.5 ng/mL and 4449.8 ng/mL
Plasma concentrations (QG group (oral QG 50 mg/kg), 1440 min): 254.4 ng/mL and 878.4 ng/mL and 519.9 ng/mL and 325 ng/mL and 366.2 ng/mL
AUC(0-t) [2]: 1100.93 mg·min/L and 4341.94 mg·min/L and 5313.01 mg·min/L and 3484.77 mg·min/L and 3287.74 mg·min/L
Cmax [2]: 2385.9 ng/mL and 5384 ng/mL and 6808 ng/mL and 6818 ng/mL and 4450 ng/mL
Tmax [2]: 480 min (2×) and 240 min and 360 min
t1/2z [2]: 9.05187 h and 8.35598 h and 5.58873 h and 4.1639 h and 3.28813 h
Plasma concentrations (Qr group (oral Qr 50 mg/kg), 5 min): 640.7 ng/mL and 69.5 ng/mL and 57.3 ng/mL and 802.4 ng/mL and 171.1 ng/mL
Plasma concentrations (Qr group (oral Qr 50 mg/kg), 120 min): 4624.9 ng/mL and 4603.8 ng/mL and 5199.9 ng/mL and 1294.5 ng/mL and 3649 ng/mL
Plasma concentrations (Qr group (oral Qr 50 mg/kg), 180 min): 3310.6 ng/mL and 4410.7 ng/mL and 6178.3 ng/mL and 1059.8 ng/mL and 3541.5 ng/mL
Plasma concentrations (Qr group (oral Qr 50 mg/kg), 240 min): 1969.1 ng/mL and 3087.5 ng/mL and 1750.4 ng/mL and 2254.1 ng/mL
Plasma concentrations (Qr group (oral Qr 50 mg/kg), 360 min): 3069.3 ng/mL and 1565.6 ng/mL and 2529.6 ng/mL and 1025.9 ng/mL and 1740.7 ng/mL
Plasma concentrations (Qr group (oral Qr 50 mg/kg), 480 min): 1701.5 ng/mL and 2705.9 ng/mL and 3008.7 ng/mL and 1156.8 ng/mL and 828.8 ng/mL
Plasma concentrations (Qr group (oral Qr 50 mg/kg), 1440 min): 416.7 ng/mL and 431.9 ng/mL and 601.2 ng/mL and 220.4 ng/mL and 329.6 ng/mL
AUC(0-t) [3]: 2664.65 mg·min/L and 3200.67 mg·min/L and 3831.17 mg·min/L and 1368.81 mg·min/L and 1887.27 mg·min/L
Cmax [3]: 7855 ng/mL and 9701 ng/mL and 9916 ng/mL and 3579 ng/mL and 6280 ng/mL
Tmax [3]: 90 min and 30 min
t1/2z [3]: 6.20775 h and 8.55312 h and 6.68888 h and 7.31962 h
Detection in rat plasma (Qr group: oral Qr 50 mg/kg): could be detected in rat plasma
CL (Qr group: oral Qr 50 mg/kg, rat plasma, mean ± SD, n = 5): 20 ± 8 mL/min/kg
